Experimental data: patent publication US8940498B2, “Biological assays for the characterization of cells using single-cell tracking and uses thereof” (priority 2012, dated 2015)
Read-outs that look alike come from different tables or passages of the source. Values belong to the compound of their own block, whether it stands above or below them.

Tests used:
HeLa cells [1] = details: for Average CQI: CQI Formula 1
HeLa cells [2] = assay: Classical clonogenic end-point assay; assay type: cell-based; details: 0.25 μM for 30 min
HeLa cells [3] = assay: cells; details: Homo sapiens, read-out: Average CQI, % of control
[4] = HeLa cells, 0.25 μM, normalized by 200 progenitors
[5] = exposure to non-cytotoxic doses

Compound: CC[C@@]1(O)C(=O)OCc2c1cc1n(c2=O)Cc2cc3ccccc3nc2-1 [CPT, camptothecin]
Average CQI (HeLa cells [1]; HeLa cells, 0.1 μM): 9.3
CQI (Formula 2) (HeLa cells [1]; HeLa cells, 0.25 μM): 0.026
total MD versus control (HeLa cells [1]; HeLa cells, 0.25 μM): reduced
Average CQI (HeLa cells [1]; HeLa cells, 0.25 μM): 6.2
DD (number of dipolar division events) (HeLa cells [1]; [4]): 1059 ± 95
MD (multipolar division, TD+QD+HD) (HeLa cells [1]; [4]): 27.0 ± 4.5
QD (number of quadripolar division events) (HeLa cells [1]; [4]): 4.0 ± 1.2
TD (number of tripolar division events) (HeLa cells [1]; [4]): 23.0 ± 3.2
Total DV (total cell division, DD+TD+QD+HD) (HeLa cells [1]; [4]): 1086 ± 9.7
Average CQI (HeLa cells [1]; HeLa cells, 1 μM): 1.8
CD induction and cell growth suppression (HeLa cells [1]; HeLa cells, at non-cytotoxic dose (0.1 μM CPT, 1 μM MNNG)): neither CD induction nor cell growth suppression
non-cytotoxic dose (HeLa cells [1]; HeLa cells, by average CQI): 0.1 µM
sub-cytotoxic dose (HeLa cells [1]; HeLa cells, by average CQI): 0.25 µM
cell survival (HeLa cells [2]): 95%
activity at 0.1 µM (HeLa cells [3]): 102%
activity at 0.25 µM (HeLa cells [3]): 60%
activity at 1 µM (HeLa cells [3]): 22%

frequency of cells entering MD versus control cell populations (HeLa cells [1]): not observed
Compound: CC(=O)Nc1ccc(O)cc1 [acetaminophen]

Compound: [Cd] [cadmium]
frequency of cells entering MD versus control cell populations (HeLa cells [1]; [5]): more frequently found than control cell populations

Compound: C=O [formaldehyde]
frequency of cells entering MD versus control cell populations (HeLa cells [1]): more frequently found than control cell populations
non-cytotoxic dose (HeLa cells [1]; human): 0.002 to 0.18 µM

Compound: CC(C)Cc1ccc(C(C)C(=O)O)cc1 (centres unmarked) [ibuprofen]
frequency of cells entering MD versus control cell populations (HeLa cells [1]; [5]): not observed

Compound: arsenic acid
frequency of cells entering MD versus control cell populations (HeLa cells [1]; [5]): more frequently found than control cell populations
